Laboratory results as given in ChEMBL document CHEMBL1143586, “Dimeric zanamivir conjugates with various linking groups are potent, long-lasting inhibitors of influenza neuraminidase including H5N1 avian influenza” (J Med Chem, 2005).
Converted amounts (≈) assume the structure as drawn. “And” between values parts separate entries of the source, which are not always exact repeats. Equal values may be shown once.

Legend:
[1] = Plasma half life in rat after 10 mg/kg oral dosage; assay type: ADME, organism-based; parameters: dose 10 mg/kg, route oral
[2] = Plasma half life in rat after 2 mg/kg intravenous dosage; assay type: ADME, organism-based; parameters: dose 2 mg/kg, route intravenous
Influenza A virus [3] = test system: Influenza A virus
in vivo [4] = details: rat, plasma
Influenza B virus [5] = test system: Influenza B virus
in vivo [6] = details: rat
Influenza A virus [7] = test system: Influenza A virus; remark: listed apart in the source
Influenza A virus [8] = test system: Influenza A virus; remark: listed apart in the source
Influenza A virus [9] = test system: Influenza A virus; remark: listed apart in the source
Mus musculus [10] = assay: Single intranasal effective dose required to inhibit viral replication in the 7-Day mouse efficacy model (Dosed with influenza A/Singapore /1/57); assay type: functional; details: inhaled or nasal, 168 h
Influenza B virus [11] = test system: Influenza B virus; remark: listed apart in the source
Influenza A virus [12] = test system: Influenza A virus; remark: listed apart in the source
Influenza A virus [13] = test system: Influenza A virus; remark: listed apart in the source
in vivo [14] = details: rat, po
in vivo [15] = details: rat, inhaled or intranasal
[16] = Plasma half life in rat after 0.4 mg/kg intratracheal dosage; assay type: ADME, organism-based; parameters: dose 0.4 mg/kg, route endotracheal; details: inhaled or intranasal
[17] = biological target: Neuraminidase (Influenza A virus (A/Puerto Rico/8/1934(H1N1)), UniProt P03468)
[18] = biological target: Neuraminidase (Influenza A virus (A/Puerto Rico/8/1934(H1N1)), UniProt P03468); remark: listed apart in the source
Mus musculus [19] = assay: Single intranasal effective dose required to inhibit viral replication in the 7-Day mouse efficacy model (Dosed with influenza A/Victoria/3/75); assay type: functional; details: inhaled or nasal, 168 h
[20] = biological target: Neuraminidase (Influenza A virus (A/Puerto Rico/8/1934(H1N1)), UniProt P03468); remark: listed apart in the source
in vivo [21] = details: rat, po; remark: listed apart in the source
Influenza B virus [22] = test system: Influenza B virus; remark: listed apart in the source

Neuraminidase (Influenza A virus (A/Puerto Rico/8/1934(H1N1)), UniProt P03468), sequence (P03468 whole entry): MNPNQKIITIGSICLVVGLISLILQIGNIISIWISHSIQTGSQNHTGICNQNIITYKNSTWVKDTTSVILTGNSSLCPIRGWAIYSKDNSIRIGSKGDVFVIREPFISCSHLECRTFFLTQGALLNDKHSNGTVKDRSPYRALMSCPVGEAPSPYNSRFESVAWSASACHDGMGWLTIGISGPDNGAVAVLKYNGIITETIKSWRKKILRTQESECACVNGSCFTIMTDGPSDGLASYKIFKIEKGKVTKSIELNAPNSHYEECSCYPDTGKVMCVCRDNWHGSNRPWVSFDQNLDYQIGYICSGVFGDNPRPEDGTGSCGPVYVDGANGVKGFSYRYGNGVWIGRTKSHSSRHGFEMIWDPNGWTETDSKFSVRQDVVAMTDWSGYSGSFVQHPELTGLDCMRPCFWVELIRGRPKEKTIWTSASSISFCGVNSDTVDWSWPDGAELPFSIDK

Structure (SMILES)	half-life [1] [h]	half-life [2] [h]	clearance (in vivo [4]) [mL/min/kg]	EC50 (Influenza B virus [5]) [ng/mL]	Vd (in vivo [6]) [L/kg]	EC50 (Influenza A virus [7]) [ng/mL]	EC50 (Influenza A virus [8]) [ng/mL]	EC50 (Influenza A virus [9]) [ng/mL]	EC50 (Influenza B virus [11])	EC50 (Influenza A virus [12]) [ng/mL]	EC50 (Influenza A virus [13])	bioavailability (in vivo [14]) [%]	bioavailability (in vivo [15]) [%]	half-life [16] [h]	also measured
[H]/N=C(\N)N[C@H]1C=C(C(=O)O)O[C@@H]([C@H](O)[C@H](O)CO)C1NC(C)=O (some centres not stated)	0.25	0.4	1.42	21 (≈ 63.2 nM)	0.03	2.7 (≈ 8.12 nM)	0.27 (≈ 0.812 nM)	2.4 (≈ 7.22 nM)	11.5 ng/mL (≈ 34.6 nM)	35 (≈ 105 nM)	56 ng/mL and > 100 ng/mL	2.7	–	–	EC50 (Influenza A virus [3]): 5.5 ng/mL (≈ 16.6 nM); ED90 (Mus musculus [10]): 2.92 mg/kg
CC(=O)NC1[C@@H](N=C(N)N)C=C(C(=O)O)O[C@H]1[C@H](OC(=O)NCCCCCCCCCCCCNC(=O)O[C@H](C(O)CO)[C@@H]1OC(C(=O)O)=C[C@H](NC(=N)N)C1NC(C)=O)C(O)CO (some centres not stated)	4.9	2.2	0.7	0.37 (≈ 0.403 nM)	0.2	0.032 (≈ 0.0349 nM)	–	0.032 (≈ 0.0349 nM)	0.05 ng/mL and 0.1 ng/mL	–	–	< 1	67	5	IC50 [17]: 61 nM; IC50 [18]: 7.86 nM; ED90 (Mus musculus [19]): 0.03 mg/kg; IC50 [20]: 21.7 nM
COC(=O)C1=C[C@H](N=C(N)N)C(NC(C)=O)[C@H]([C@H](OC(=O)NCCCNC(=O)c2ccc(C(=O)NCCCNC(=O)O[C@H](C(O)CO)[C@@H]3OC(C(=O)O)=C[C@H](N=C(N)N)C3NC(C)=O)cc2)C(O)CO)O1 (some centres not stated)	–	0.4	0.7	0.32 (≈ 0.317 nM)	0.2	0.03 (≈ 0.0297 nM)	0.06 (≈ 0.0595 nM)	0.05 (≈ 0.0496 nM)	–	0.009 (≈ 0.00892 nM)	0.02 ng/mL (≈ 0.0198 nM)	–	67	2	bioavailability (in vivo [21]): < 1%; EC50 (Influenza B virus [22]): 0.022 ng/mL (≈ 0.0218 nM)
